Assay results as given in patent US5608095A, “Alkyl-4-silyl-phenols and esters thereof as antiatherosclerotic agents” (Hoechst Marion Roussel, Inc., priority 1996, dated 1997).
Read-outs that look alike come from different tables or passages of the source.

Assays:
[1] = system: oxidation of serum lipids; assay: TBARS assay, rat serum; assay type: in vivo, male Sprague-Dawley rats; settings: po, 96 h, read-out: TBARS, percent of control
From the text: (§1) A typical experiment consisted of 4-6 groups of rats (N=5 per group) with 1 group being a control which received no MDL compound and the other groups being treated with 0.3% MDL compound. Some of the compounds were either repeated at 0.3% or evaluated again at the lower dose of 0.1%. Male Sprague-Dawley rats, 50-100 g, (Harlan Laboratories, Indianapolis, Ind.) were housed in groups of 5, fed ad libitum water and Purina Rodent chow (#5002) with or without MDL compound as a dietary admixture for 4 days. Dietary admixtures (0.3%) were made by mixing 1.2 grams of an MDL compound with 400 grams of Purina rodent chow (#5002). The MDL compound was mixed with approximately 50 grams of food using a mortar and pestle. This was added to the remainder of the food and mixed for 3 hours on a rotary mixer. In the morning of day 5, non-fasted rats were anesthetized with carbon dioxide, and blood was collected by cardiac puncture. Rats were sacrificed by cervical dislocation. Body weights and liver weights were recorded in grams. Food consumption was recorded as grams.cndot.day^-1.cndot.rat^-1. Deaths were recorded as mortality. Aliquots of fresh serum were used for clinical chemistries, thiobarbituric acid reactive substances (TBARS) and conjugated diene measurements. Aliquots of serum (~0.5mL) and whole livers were frozen at -20° C. for compound and metabolite concentration determination at a later time.
In this assay the oxidation of serum lipids is initiated with CuSO4, resulting in the formation of aldehydes, such as malondialdehyde (MDA). Upon incubation with thiobarbituric acid, the absorbance of the aldehydes can be detected at 530-540 nm. As stated in the previous example, TBARS values which are lower than control serum values indicate the relative ability of a test compound to inhibit the oxidation of lipids in a sample. TBARS were measured as follows: 100 μL of serum were mixed with 400 μL of a 5 mmol CuSO4 solution and incubated at 37° C. for 3 hr. The reactions were stopped by addition of 1.0 mL of 20% trichloroacetic acid. Then 1.0 mL of 0.67% thiobarbituric acid in 0.05N sodium hydroxide was added, mixed, and the samples incubated for 30 min at 90° C. Samples were centrifuged briefly to pellet undissolved material, and the supernatants were transferred to a 96-well microtiter plate. Absorbances were measured at 540 nm using a Biotek model EL311 microplate reader. The nmoles of MDA produced were calculated from a standard curve of 0 to 10 nmoles of MDA prepared from malonaldehyde bis(dimethylacetal). Serum samples from treated rats were compared to serum samples from control rats that received no MDL compound.

[2] = Clinical chemistries in serum of rats; assay type: in vivo, male Sprague-Dawley rats; settings: for response vs control in vivo at 0.3 %: po, 96 h
From the text: as §1
Blood was allowed to clot at room temperature for 30 minutes. Serum was obtained after centrifugation for 10 min at 4° C. at 3000 rpm in a Beckman J-6M/E centrifuge with a JS-4.2 rotor. Fresh serum was analyzed by a COBAS MIRA S autoanalyzer (Roche Diagnostics) using Roche diagnostic reagents for the following clinical chemistry measurements: alkaline phosphatase (ALP, kit #44553), alanine transaminase (ALT, kit #42375), aspartate aminotransferase (AST, kit #42381), total cholesterol (CHOL, kit #44334), triglyceride (TG, kit #44120), and glucose (GLU, kit #44558). ALP, ALT, and AST were calculated as units/L. Cholesterol, triglycerides, and glucose were calculated as mg/dL.

[3] = HPLC quantitation of compound and metabolite concentration in rat serum and liver; assay type: in vivo, male Sprague-Dawley rats; settings: po, diet 0.3%, 4 days
From the text: as §1
(§2) Serum and liver concentrations of parent compound and the metabolites, bisphenol and diphenoquinone, were determined by reverse phase HPLC using a Waters 990 Powerline system. Livers (1 gram samples) were homogenized with 5.0 mL PBS, pH 7.4, using a Polytron tissue homogenizer at setting 5 for 20-30 seconds. Serum or liver homogenates were extracted as follows: 100μL of either serum or homogenate were added to 2.0 mL diethyl ether:ethanol (3:1) while vortexing the tube. The sample tubes were capped and centrifuged for 10 min at 5° C. at 3500 rpm in a Beckman GPKR centrifuge with a GH 3.7 rotor. The supernatants were transferred to clean tubes and dried under N2. Samples were reconstituted with 200 μL of acetonitrile:hexane:0.1M ammonium acetate (90:6.5:3.5, by vol.). Then, 100 μL were injected onto a Waters Deltapak C18-300 Å column, and eluted with an 83% acetonitrile:17% water mobile phase at a flow rate of 1.5 mL/min. Absorbances at the wavelengths of 240, 254, and 420 nm were recorded. Compound concentrations were calculated from known quantities of authentic parent compounds after correction for recovery; the range of recovery from spiked samples was 40 to 100%. The lowest detectable limit for this class of compounds was ~0.5 μg/mL. Concentrations were calculated as μg/mL. Concentrations were calculated as μg/mL of serum and μg/g of liver.

[4] = Animal parameters (food, body weight, liver weight, mortality) in rats; assay type: in vivo, male Sprague-Dawley rats; settings: diet 0.3%, 4 days; for mortality at 96 h: in vivo, po, read-out: mortality (deaths per group); for mortality at 96 h / body wt., percent of control / lw/bw (liver weight/body weight), percent of control: rat
From the text: as §1

[5] = system: oxidation of serum lipids; assay: TBARS assay, serum of cholesterol-fed rabbits; assay type: in vivo, female New Zealand White rabbits; settings: Oryctolagus cuniculus, po, 168 h; rabbit serum, diet 0.4%, 7 days; read-out: TBARS, percent of control
Experimental: (§3) Five independent experiments were performed in the following manner. […] Female New Zealand White rabbits (Hazelton, ~2.0-2.3 kg) were fed 0.2% cholesterol enriched rabbit chow (Purina #5322) with or without 0.4% MDL compound (except, MDL 108,804 at 0.26% and MDL 103,491 repeated at 0.6%). The MDL compounds were solubilized in 100% ethanol. MDL 108,208 was not soluble in 100% ethanol, but it was soluble in diethyl ether:ethanol (3:2 by volume). The chow was sprayed with the MDL mixtures and allowed to dry overnight in a chemical fume hood. Control chow was sprayed with ethanol. Rabbits were fed 100 grams food per day for 7 days (0.6% MDL 103,491 were fed for 14 days); water was available ad libitum. On day 7, rabbits (fasted overnight) were bled (~2 mL) from marginal ear vein; 0.6% MDL 103,491 treated rabbits were tested on day 14. They were euthanized by carbon dioxide overdose. The total body and liver weights were recorded in grams. Food consumption was recorded as grams.cndot.day^-1 .cndot.rabbit^-1. Aliquots of fresh serum were used for clinical chemistries, lipoprotein cholesterol determination, thiobarbituric acid reactive substances (TBARS) and compound and metabolite concentrations in serum. Livers (~5 gram aliquots) were frozen at -20° C. for compound and metabolite concentration determination at a later time.
TBARS are a qualitative indication of the oxidation of lipids in a sample. In this assay the oxidation of serum lipids is initiated with CuSO4, resulting in the formation of aldehydes, such as malondialdehyde (MDA). Upon incubation with thiobarbituric acid, the absorbance of the aldehydes can be detected at 530-540 nm. TBARS values which are lower than control serum values indicate the relative ability of a compound to inhibit the oxidation. TBARS were measured as follows: 50 μL of serum were mixed with 50 μL of 0.9% saline and 400 μL of a 5 mM CuSO4 solution and incubated at 37° C. for 5 hr. The reactions were stopped by addition of 1.0 mL of 20% trichloroacetic acid. Then 1.0 mL of 0.67% thiobarbituric acid in 0.05N sodium hydroxide was added, mixed, and the samples incubated for 30 min at 90° C. Samples were centrifuged briefly to pellet undissolved material, and the supernatants were transferred to a 96-well microtiter plate. Absorbances were measured at 540 nm using a Biotek model EL311 microplate reader. The nmoles of MDA produced were calculated from a standard curve of 0 to 10 nmoles of MDA prepared from malonaldehyde bis(dimethylacetal). Serum samples from treated rabbits were compared to serum samples from control rabbits that received no MDL compound.

[6] = HPLC quantitation of compound and metabolite concentration in rabbit serum and liver; assay type: in vivo, female New Zealand White rabbits; settings: diet 0.4%, 7 days
Experimental: as §3
as §2, with “of parent compounds and the” for “of parent compound and the”, “Livers (1 gram) were homogenized” for “Livers (1 gram samples) were homogenized”, “as follows: 100 μL of either” for “as follows: 100μL of either”, “1.5 mL/min. Absrobances at the” for “1.5 mL/min. Absorbances at the”, “calculated as μg/mL of” for “calculated as μg/mL. Concentrations were calculated as μg/mL of”

[7] = Food consumption, body and liver weight in cholesterol-fed rabbits; assay type: in vivo, female New Zealand White rabbits; settings: diet 0.4%, 7 days
Experimental: as §3

[8] = system: serum cholesterol, LDL, HDL, triglycerides; assay: Serum lipids and lipoprotein cholesterol in cholesterol-fed female New Zealand White rabbits; assay type: in vivo; settings: Oryctolagus cuniculus, po, 168 h, rabbit serum, diet 0.4%, 7 days
Experimental: as §3
Blood was allowed to clot at room temperature for 30 minutes. Serum was obtained after centrifugation for 10 min at 5° C. at 3000 rpm in a Beckman GPKR centrifuge with a GH rotor. Fresh serum was analyzed by a COBAS MIRA autoanalyzer (Roche Diagnostics) using Roche diagnostic reagents for total cholesterol (CHOL, kit #44334) and triglyceride (TG, kit #44120). Cholesterol and triglycerides were calculated as mg/dL.
Lipoprotein fractions (very low density lipoprotein, VLDL, low density lipoprotein, LDL and high density lipoprotein, HDL) were separated on a Sepharose 6HR column (1×30 cm, Pharmacia) attached to a Waters Powerline HPLC system. Fifty μL of serum were injected onto the column and eluted with phosphate buffered saline, pH 7.4, at a flow rate of 0.5 mL/min. Cholesterol reagent (Roche Diagnostics, kit #44334, diluted with 20 mL water and then with 20 mL of 0.9% saline) was added at 0.2 mL/min to the post column eluant and incubated in a knitted PFTE Kratos reaction coil (Applied Biosystems) at 37° C. for 5 min. Absorbance was measured at 500 nm. The lipoprotein subfractions were quantitated as follows: [formula]

[9] = Rattus norvegicus, read-out: CHOL (total cholesterol), percent of control
[10] = rat liver, read-out: Liver Parent = parent compound concentration
[11] = rat serum, read-out: Serum Parent = parent compound concentration

| Compound | response vs control in vivo at 0.3 % [2, 9] | ALP (alkaline phosphatase), percent of control ([2]; rat serum, diet 0.3%, 4 days) | ALT (alanine aminotransferase), percent of control ([2]; rat serum, diet 0.3%, 4 days) | AST (aspartate aminotransferase), percent of control ([2]; rat serum, diet 0.3%, 4 days) | GLUC (glucose), percent of control ([2]; rat serum, diet 0.3%, 4 days) | concentration at 96 h [3, 10] | concentration at 96 h [3, 11] | food (grams eaten per day per rat), percent of control [4] | mortality at 96 h [4] | body wt., percent of control [4] | lw/bw (liver weight/body weight), percent of control [4] | also measured |
| --- | --- | --- | --- | --- | --- | --- | --- | --- | --- | --- | --- | --- |
| CC(C)(C)c1cc(SC[Si](C)(C)c2ccccc2)ccc1O [MDL 104,571, 2-t-Butyl-4-[(dimethylphenylsilyl)methylthio]phenol] | 108% | 103% | 109% | 103% | 96% | 500 ng/g | 1200 ng/mL | 108% | 0% | 97% | 123% | response vs control in vivo at 0.3 % ([1]; rat serum, diet 0.3%, 4 days): 58%; response vs control in vivo at 0.3 % ([2]; rat serum, diet 0.3%, 4 days, read-out: TRIG (triglycerides), percent of control): 119% |
| CC(C)(C)c1cc(OC[Si](C)(C)c2cccc(C(F)(F)F)c2)cc(C(C)(C)C)c1O [MDL 105,726, 2,6-Di-t-butyl-4-[(dimethyl-3-trifluoromethylphenylsilyl)methyloxy]phenol] | 104% | 118% | 113% | 112% | 105% | 128000 ng/g | 17000 ng/mL | 112% | 0% | 105% | 120% | response vs control in vivo at 0.3 % ([1]; Rattus norvegicus): 48%; response vs control in vivo at 0.3 % ([2]; Rattus norvegicus, read-out: TRIG (triglycerides), percent of control): 75% |
| CC(C)(C)c1cc(OC[Si](C)(c2ccccc2)c2ccccc2)ccc1O [MDL 107,917, 2-t-butyl-4-[(diphenylmethylsilyl)methyloxy]phenol] |  |  |  |  |  |  |  |  |  |  |  | response vs control in vivo at 0.4 % [5]: 68%; Liver Parent = parent compound concentration ([6]; rabbit liver): 0 µg/g; Serum Parent = parent compound concentration ([6]; rabbit serum): 0 µg/mL; food (grams eaten per day per rabbit), percent of control [7]: 100%; body wt., percent of control ([7]; rabbit): 99%; lw/bw (liver weight/body weight), percent of control ([7]; rabbit): 106%; response vs control in vivo at 0.4 % ([8]; read-out: HDL cholesterol, percent of control): 86%; response vs control in vivo at 0.4 % ([8]; read-out: LDL cholesterol, percent of control): 165%; response vs control in vivo at 0.4 % ([8]; read-out: TRIG (triglycerides), percent of control): 129%; response vs control in vivo at 0.4 % ([8]; read-out: chol tot. (total cholesterol), percent of control): 151% |
